From patent publication US4027016A, “Everninomicin antibacterial derivatives, electrochemical method for their manufacture, method for their use as antibacterial agents, and pharmaceutical compositions useful therefor” (Schering Corporation, priority 1976, dated 1977)
Values after ≈ are worked out from the molar mass of the structure shown. Counter-ions that a name gives are not always drawn. Like-named read-outs stand apart in the source and are kept apart here.

Assays:
bacteria [1] = conditions: known compounds, cited from earlier work
gram-positive bacteria = assay: Antibacterial activity against gram-positive bacteria (in words); format: cell-based; conditions: for antibacterial activity in vitro against gram-positive bacteria: e.g. Staphylococcus aureus, Staph. 11631, Staph. W., Streptococcus pyogenes C, Strep. pyogenes C-203, Bacillus subtilis
[2] = tested on: bacteria which are resistant to other antibacterial agents; assay: Antibacterial activity against resistant bacteria (in words); format: cell-based; conditions: resistant to penicillin, penicillinase-resistant penicillins, tetracycline, macrolides such as erythromycin, lincomycin
[3] = tested on: Staphylococcus aureus Strain 59N; assay: Microbiological Activity (in vitro), Staphylococcus aureus Strain 59N; format: cell-based; conditions: STRAIN59N
[4] = tested on: Staphylococcus aureus Strain 209B; assay: Microbiological Activity (in vitro), Staphylococcus aureus Strain 209B; format: cell-based; conditions: STRAIN209B
[5] = tested on: Staphylococcus aureus Strain Wood; assay: Microbiological Activity (in vitro), Staphylococcus aureus Strain Wood; format: cell-based
gram-negative bacteria = assay: Antibacterial activity against gram-negative bacteria (in words); format: cell-based; conditions: certain gram-negative bacteria
[6] = Peak Serum Levels in Dogs; format: in vivo, dog; conditions: for Peak Serum Levels in Dogs: 10 mg/kg i.m., single dose, agar diffusion assay of serum
Experimental: In determining peak serum levels, the animal tested (e.g. dog) is given a single dose of 10 mg/kg of the everninomicin D derivative, blood samples are taken periodically, and the serum thereof is assayed for antibacterial activity by an agardiffusion-assay as described by Weinstein et al., Antimicrobial Agents and Chemotherapy, p. 24 (1964).

bacteria [7] = assay: Antibacterial activity, general (in words); conditions: when administered by injection
[8] = tested on: Staphylococcus aureus Strain Gray; assay: Microbiological Activity (in vitro), Staphylococcus aureus Strain Gray; format: cell-based
[9] = tested on: Staphylococcus aureus Strain Ziegler; assay: Microbiological Activity (in vitro), Staphylococcus aureus Strain Ziegler; format: cell-based
pKa = format: physicochemical

For `COCC1OC(OC2OCC3OC4(OCC(O)(C(C)OC)C5OCOC54)OC3C2OC)C(OC)C(O)C1OC1OC(C)C(OC)C(OC2OC(C)C3OC4(CC(O)C(OC5CC(O)C(OC(=O)c6c(C)c(Cl)c(O)c(Cl)c6OC)C(C)O5)C(C)O4)OC3(C)C2O)C1O` (stereo not shown) [desevernitrose everninomicin B], the antibacterial activity (bacteria [1]; U.S. Pat. No. 3,920,629) is given as “having anti-bacterial activity”.
For `COCC1OC(OC2OCC3OC4(OCC(O)(C(C)OC)C5OCOC54)OC3C2OC)C(OC)C(O)C1OC1OC(C)C(OC)C(OC2OC(C)C3OC4(CC(O)C(OC5CC(OC6CC(C)(N=O)C(OC)C(C)O6)C(OC(=O)c6c(C)c(Cl)c(O)c(Cl)c6OC)C(C)O5)C(C)O4)OC3(C)C2O)C1O` (stereo not shown) [nitrosoeverninomicin B], the antibacterial activity (bacteria [1]; U.S. Pat. No. 3,915,956) is given as “exhibit antibacterial activity”.
For `COCC1OC(OC2OCC3OC4(OCC(O)C5OCOC54)OC3C2OC)C(OC)C(O)C1OC1OC(C)C(OC)C(OC2CC3(C)OC4(CC(O)C(OC5CC(OC6CC(C)(O)C(OC)C(C)O6)C(OC(=O)c6c(C)c(Cl)c(O)c(Cl)c6OC)C(C)O5)C(C)O4)OC3C(C)O2)C1O` (stereo not shown) [everninomicin C-7], the “inhibiting the growth of gram-positive bacteria” value (“inhibiting the growth” for short) (gram-positive bacteria) was “antibacterial activity against gram-positive bacteria”, the “antibacterial activity in vitro against gram-positive bacteria” value (from here on “antibacterial activity in vitro”) (gram-positive bacteria) was “narrow spectrum antibacterial activity in vitro against gram-positive bacteria” and the “antibacterial activity against resistant bacteria” value [2] was “exhibit antibacterial activity against bacteria which are resistant to other antibacterial agents”.
With `COCC1OC(OC2OCC3OC4(OCC(O)(C(C)OC)C5OCOC54)OC3C2OC)C(OC)C(O)C1OC1OC(C)C(OC)C(OC2CC3(C)OC4(CC(O)C(OC5CC(OC6CC(C)(O)C(OC)C(C)O6)C(OC(=O)c6c(C)c(Cl)c(O)c(Cl)c6OC)C(C)O5)C(C)O4)OC3C(C)O2)C1O` [everninomicin D-7] the MIC [3] was 0.075 µg/mL (≈ 0.0497 µM), the MIC [4] was 0.3 µg/mL (≈ 0.199 µM) and the “inhibiting the growth” value (gram-positive bacteria) was “particularly effective in inhibiting the growth of gram-positive bacteria”. The “antibacterial activity in vitro” value (gram-positive bacteria) was “narrow spectrum antibacterial activity in vitro against gram-positive bacteria”, the MIC [5] was 0.75 µg/mL (≈ 0.497 µM) and the “susceptibility of gram-negative bacteria” value (gram-negative bacteria) was “certain gram-negative bacteria are also susceptible”. For the same compound, the “Peak Serum Levels in Dogs” value [6] was 15-60, the “absorption and serum levels in the dog” value ([6]; when administered by injection) was “rapidly absorbed, producing high serum levels in the dog” and the “antibacterial activity relative to precursor hydroxylaminoeverninomicin D” value (bacteria [7]) was “antibacterial activity comparable to that of the precursor hydroxylaminoeverninomicin D”. The “antibacterial activity against resistant bacteria” value [2] was “exhibit antibacterial activity against bacteria which are resistant to other antibacterial agents”, the MIC [8] was 0.3 µg/mL (≈ 0.199 µM) and the MIC [9] was 0.75 µg/mL (≈ 0.497 µM).
For `COCC1OC(OC2OCC3OC4(OCC(O)C5OCOC54)OC3C2OC)C(OC)C(O)C1OC1OC(C)C(OC)C(OC2CC3(C)OC4(CC(O)C(OC5CC(OC6CC(C)(NO)C(OC)C(C)O6)C(OC(=O)c6c(C)c(Cl)c(O)c(Cl)c6OC)C(C)O5)C(C)O4)OC3C(C)O2)C1O` (stereo not shown) [hydroxylaminoeverninomicin C], the antibacterial activity (bacteria [1]; U.S. Pat. No. 3,915,956) is given as “exhibit antibacterial activity”.
For `COCC1OC(OC2OCC3OC4(OCC(O)C5OCOC54)OC3C2OC)C(OC)C(O)C1OC1OC(C)C(OC)C(OC2CC3(C)OC4(CC(O)C(OC5CC(O)C(OC(=O)c6c(C)c(Cl)c(O)c(Cl)c6OC)C(C)O5)C(C)O4)OC3C(C)O2)C1O` (stereo not shown) [desevernitrose everninomicin C], the antibacterial activity (bacteria [1]; U.S. Pat. No. 3,920,629) is given as “having anti-bacterial activity”.
In the case of `COCC1OC(OC2OCC3OC4(OCC(O)(C(C)OC)C5OCOC54)OC3C2OC)C(OC)C(O)C1OC1OC(C)C(OC)C(OC2CC3(C)OC4(CC(O)C(OC5CC(OC6CC(C)(N=O)C(OC)C(C)O6)C(OC(=O)c6c(C)c(Cl)c(O)c(Cl)c6OC)C(C)O5)C(C)O4)OC3C(C)O2)C1O` (stereo not shown) [nitrosoeverninomicin D], the antibacterial activity (bacteria [1]; U.S. Pat. No. 3,915,956) is given as “exhibit antibacterial activity”.
In the case of `COCC1OC(OC2OCC3OC4(OCC(O)(C(C)OC)C5OCOC54)OC3C2OC)C(OC)C(O)C1OC1OC(C)C(OC)C(OC2OC(C)C3OC4(CC(O)C(OC5CC(OC6CC(C)(NO)C(OC)C(C)O6)C(OC(=O)c6c(C)c(Cl)c(O)c(Cl)c6OC)C(C)O5)C(C)O4)OC3(C)C2O)C1O` (stereo not shown) [hydroxylaminoeverninomicin B], the antibacterial activity (bacteria [1]; U.S. Pat. No. 3,915,956) is given as “exhibit antibacterial activity”.
In the case of `COCC1OC(OC2OCC3OC4(OCC(O)(C(C)OC)C5OCOC54)OC3C2OC)C(OC)C(O)C1OC1OC(C)C(OC)C(OC2OC(C)C3OC4(CC(O)C(OC5CC(OC6CC(C)(O)C(OC)C(C)O6)C(OC(=O)c6c(C)c(Cl)c(O)c(Cl)c6OC)C(C)O5)C(C)O4)OC3(C)C2O)C1O` (stereo not shown) [everninomicin B-7], the “inhibiting the growth” value (gram-positive bacteria) is reported as “antibacterial activity against gram-positive bacteria”, the “antibacterial activity in vitro” value (gram-positive bacteria) is reported as “narrow spectrum antibacterial activity in vitro against gram-positive bacteria” and the “antibacterial activity against resistant bacteria” value [2] is reported as “exhibit antibacterial activity against bacteria which are resistant to other antibacterial agents”.
With `COCC1OC(OC2OCC3OC4(OCC(O)(C(C)OC)C5OCOC54)OC3C2OC)C(OC)C(O)C1OC1OC(C)C(OC)C(OC2CC3(C)OC4(CC(O)C(OC5CC(OC6CC(C)(NO)C(OC)C(C)O6)C(OC(=O)c6c(C)c(Cl)c(O)c(Cl)c6OC)C(C)O5)C(C)O4)OC3C(C)O2)C1O` (stereo not shown) [Hydroxylaminoeverninomicin D Sodium salt, reference compound] the MIC [3] was 0.03 µg/mL, the MIC [4] was 0.06 µg/mL and the MIC [5] was 0.06 µg/mL. For the same compound, the “Peak Serum Levels in Dogs” value [6] was 20-30, the MIC [8] was 0.06 µg/mL and the MIC [9] was 0.06 µg/mL.
For `COCC1OC(OC2OCC3OC4(OCC(O)(C(C)OC)C5OCOC54)OC3C2OC)C(OC)C(O)C1OC1OC(C)C(OC)C(OC2CC3(C)OC4(CC(O)C(OC5CC(OC6CC(C)(NO)C(OC)C(C)O6)C(OC(=O)c6c(C)c(Cl)c(O)c(Cl)c6OC)C(C)O5)C(C)O4)OC3C(C)O2)C1O` (stereo not shown) [hydroxylaminoeverninomicin D], the antibacterial activity (bacteria [1]; U.S. Pat. No. 3,915,956) is given as “exhibit antibacterial activity”.
In the case of `COCC1OC(OC2OCC3OC4(OCC(O)C5OCOC54)OC3C2OC)C(OC)C(O)C1OC1OC(C)C(OC)C(OC2CC3(C)OC4(CC(O)C(OC5CC(OC6CC(C)(N=O)C(OC)C(C)O6)C(OC(=O)c6c(C)c(Cl)c(O)c(Cl)c6OC)C(C)O5)C(C)O4)OC3C(C)O2)C1O` (stereo not shown) [nitrosoeverninomicin C], the antibacterial activity (bacteria [1]; U.S. Pat. No. 3,915,956) is listed as “exhibit antibacterial activity”.
In the case of `COCC1OC(OC2OCC3OC4(OCC(O)(C(C)OC)C5OCOC54)OC3C2OC)C(OC)C(O)C1OC1OC(C)C(OC)C(OC2CC3(C)OC4(CC(O)C(OC5CC(O)C(OC(=O)c6c(C)c(Cl)c(O)c(Cl)c6OC)C(C)O5)C(C)O4)OC3C(C)O2)C1O` (stereo not shown) [desevernitrose everninomicin D], the pKa (pKa) is listed as 7.5 and the antibacterial activity (bacteria [1]; U.S. Pat. No. 3,920,629) is listed as “having anti-bacterial activity”.
